Columns and labels:
[1] = Fluoride ion sensing: fluorescence and absorption spectra of the probes with NaF; assay type: physicochemical; conditions: probe alone, before F^−
Method: The procedure for fluoride ion sensing is described. Stock solutions of inventive compounds R1-R3 (1 mM) are prepared in DMSO. The test solutions of the inventive compounds R1-R3 (10 μM) in […] DMSO-HEPES solution (3/2, v/v, 10 mM HEPES, pH=7.2) are prepared by placing stock solutions in 10-mL volumetric flask, and diluting with buffer solution. The resulting solutions are shaken well and incubated at room temperature for 50 minutes before recording the spectra.
Sodium fluoride (NaF) is used as a fluoride source for the fluoride ion sensing test. Stock solution of NaF (1 mM) is prepared in deionized water. The test solutions of the inventive compounds R1-R3 (10 μM) with NaF (500 μM) are prepared by placing stock solutions in 10-mL volumetric flask, and diluting with buffer solution. The resulting solutions are shaken well and incubated at room temperature for 50 minutes before recording the spectra.
UV-visible spectra are recorded on a Shimadzu UV-2550 spectrometer. Steady-state emission experiments at room temperature are measured on an Edinburgh instrument FLS-920 spectrometer with a Xe lamp as an excitation source. Unless otherwise noted, for all measurements, the excitation wavelength is 620 nm and the emission wavelength is collected from 640 to 780 nm.
The color changed from colorless to blue, which can be visible by naked eyes. The reaction mechanism is further confirmed by HR-MS analysis in aqueous solution. After treated with NaF, a new peak is appeared in the solution with almost the same HR-MS data for the three compounds (R1: 284.1214; R2: 284.1202; R3: 284.1209), which is nearly identical to the theoretical molecular mass of the MB ([M−Cl^−]^+=284.1216).

[2] = Fluorescence intensity change with pH variation; assay type: physicochemical; conditions: 10 μM, before NaF
Source text: Fluorescence change of inventive compound R3 before/after treated with NaF under different pH levels are described.

| SMILES | absorption and emission in visible range [1] | pH range in which the compound remains stable [2] |
| --- | --- | --- |
| CC(C)[Si](Oc1ccc(COC(=O)N2c3ccc(N(C)C)cc3Sc3cc(N(C)C)ccc32)cc1)(C(C)C)C(C)C [Compound R2, 4-((triisopropylsilyl)oxy)benzyl 3,7-bis(dimethylamino)-10H-phenothiazine-10-carboxylate] | no absorption and emission in visible range | – |
| CN(C)c1ccc2c(c1)Sc1cc(N(C)C)ccc1N2C(=O)OCc1ccc(O[Si](c2ccccc2)(c2ccccc2)C(C)(C)C)cc1 [Compound R1, 4-((tert-butyldiphenylsilyl)oxy)benzyl 3,7-bis(dimethylamino)-10H-phenothiazine-10-carboxylate] | no absorption and emission in visible range | – |
| CN(C)c1ccc2c(c1)Sc1cc(N(C)C)ccc1N2C(=O)OCc1ccc(O[Si](C)(C)C(C)(C)C)cc1 [Compound R3, 4-((tert-butyldimethylsilyl)oxy)benzyl 3,7-bis(dimethylamino)-10H-phenothiazine-10-carboxylate] | no absorption and emission in visible range | 2-12 |

Reference: patent US10865218B2, “Fluoride fluorescence probe” (The Procter & Gamble Company, priority 2017, dated 2020)
